The text below walks through data of ChEMBL document CHEMBL1201862, “PubChem BioAssay data set” (2004).

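Values below derive from 48-hour exposures of cells grown in 96-well plates, with endpoints linearly interpolated between the two concentrations bracketing the appropriate inhibition level. GI50 is the concentration that inhibits growth by half.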 Calls of active or inactive are those of the source. Cut-off read from the data, not from the text of the source: active = GI50 up to about 1.1 µM and inactive = higher.

Some test systems named below: UACC-62; NCI-H522; SNB-19; UO-31; HOP-62; OVCAR-4; MDA-MB-435; HL-60; NCI/ADR-RES; NCI-H460; SK-MEL-5; TK-10; BT-549; M14; CAKI-1; SW-620; HCT-116; KM12; NCI-H23; HCC 2998.
Common to all, as to experiment: NCI-60 cell line screen, 48 h

As for `O=C1/C(=C/c2cccc(Oc3ccccc3)c2)N=C(c2ccccc2)N1c1nc2ccc(Sc3ccccc3)cc2[nH]1`, the GI50 in the assay on UACC-62 is 23.2 µM (inactive); with NCI-H522, 25.2 µM (inactive); in the assay on SNB-19, 35.5 µM (inactive); in the assay with UO-31, 50.1 µM (inactive); with HOP-62, 28.4 µM (inactive); with OVCAR-4 it was 47.3 µM (inactive). For the same molecule, the GI50 in the assay with MDA-MB-435 was 15.4 µM (inactive); in the assay on HL-60 it was 20.4 µM (inactive); with NCI/ADR-RES it was 20.5 µM (inactive); in the assay on NCI-H460, 23 µM (inactive); in the assay on SK-MEL-5, 24.4 µM (inactive); with TK-10, 25.2 µM (inactive). The GI50 in the assay with BT-549 was 14.9 µM (inactive); in the assay with M14 it was 24.3 µM (inactive); with CAKI-1, 36.2 µM (inactive); in the assay on SW-620 it was 29.4 µM (inactive); in the assay on HCT-116, 30.2 µM (inactive); in the assay on KM12, 29.6 µM (inactive). The GI50 was 12.1 µM (inactive) in the assay with NCI-H23 and 13.3 µM (inactive) in the assay on HCC 2998.

On to `CCCCCCCCCCCCCCCC(=O)OCC1OC(OC)C(NC(=O)N(CCCl)N=O)C(O)C1O` (stereo not given), for which the GI50 was 2.02 µM (inactive) in the assay with UACC-62; 15.9 µM (inactive) in the assay on NCI-H522; 14.8 µM (inactive) in the assay on SNB-19; 24 µM (inactive) with UO-31; 8.04 µM (inactive) with HOP-62; 20 µM (inactive) with OVCAR-4. The GI50 in the assay with MDA-MB-435 was 16.7 µM (inactive); with HL-60, 4.57 µM (inactive); in the assay on NCI/ADR-RES it was 13.9 µM (inactive); in the assay with NCI-H460, 5.61 µM (inactive); in the assay with SK-MEL-5 it was 21.1 µM (inactive); in the assay on TK-10, 22.8 µM (inactive). Also, the GI50 is 28.3 µM (inactive) in the assay with BT-549; 16.8 µM (inactive) with M14; 14.5 µM (inactive) with CAKI-1; 9.48 µM (inactive) with SW-620; 13 µM (inactive) in the assay on HCT-116; 19 µM (inactive) in the assay with KM12. The GI50 in the assay with NCI-H23 was 11.5 µM (inactive); in the assay on HCC 2998 it was 18.4 µM (inactive).

On to `Cn1c(NNc2ccccc2)cc(=O)[nH]c1=O`, for which the GI50 in the assay with UACC-62 was 36.1 µM (inactive); in the assay on NCI-H522, 19.1 µM (inactive); in the assay with SNB-19, > 100 µM (inactive); in the assay with UO-31, 28.2 µM (inactive); with HOP-62, > 100 µM (inactive); in the assay with OVCAR-4, 55.8 µM (inactive). For the same molecule, the GI50 is 20.9 µM (inactive) with MDA-MB-435; 32.7 µM (inactive) in the assay with HL-60; 35.8 µM (inactive) in the assay with NCI/ADR-RES; 51.9 µM (inactive) in the assay with NCI-H460; 25.6 µM (inactive) with SK-MEL-5; > 100 µM (inactive) with TK-10. The GI50 with BT-549 is > 100 µM (inactive); in the assay on M14, 33.9 µM (inactive); in the assay on CAKI-1, 29.9 µM (inactive); with SW-620, 62.1 µM (inactive); with HCT-116, 42.5 µM (inactive); in the assay with KM12, 15.2 µM (inactive). The GI50 with NCI-H23 was > 100 µM (inactive); in the assay with HCC 2998 it was 27.3 µM (inactive).

On to `O=C1C(c2ccccc2)=C(c2ccccc2)C1(Cl)Cl`, for which the GI50 in the assay on UACC-62 was 1.86 µM (inactive); in the assay on NCI-H522, 2.12 µM (inactive); with SNB-19, 16.7 µM (inactive); in the assay with UO-31 it was 3.61 µM (inactive); in the assay with HOP-62, 14.8 µM (inactive); in the assay with OVCAR-4 it was 3.67 µM (inactive). Further, the GI50 is 2.43 µM (inactive) in the assay on MDA-MB-435; 0.736 µM (active) in the assay on HL-60; 3.2 µM (inactive) in the assay on NCI/ADR-RES; 5.9 µM (inactive) in the assay on NCI-H460; 2.82 µM (inactive) in the assay on SK-MEL-5; 0.667 µM (active) in the assay on TK-10. Further, the GI50 is 2.47 µM (inactive) in the assay with BT-549; 2.22 µM (inactive) in the assay with M14; 2.62 µM (inactive) in the assay on CAKI-1; 2.75 µM (inactive) with SW-620; 1.5 µM (inactive) in the assay with HCT-116; 6.65 µM (inactive) in the assay with KM12. Further, the values for the GI50 in the assay with NCI-H23 and with HCC 2998 were 2.75 µM (inactive) and 5.19 µM (inactive), respectively.

Turning to `CCOC(=O)n1ccc2c(C(=O)OC)c(C(=O)OC)cc(/C(=C/C(=O)OC)C(=O)OC)c21`, the GI50 is 82.2 µM (inactive) in the assay on UACC-62; 57.1 µM (inactive) in the assay with NCI-H522; > 100 µM (inactive) in the assay on SNB-19; 92.5 µM (inactive) with UO-31; > 100 µM (inactive) with HOP-62; > 100 µM (inactive) in the assay on OVCAR-4. Besides, the GI50 in the assay on MDA-MB-435, in the assay on HL-60, with NCI/ADR-RES, in the assay on NCI-H460, with SK-MEL-5 and in the assay with TK-10 was > 100 µM (inactive) throughout. In addition, the GI50 is 60.7 µM (inactive) in the assay with BT-549; > 100 µM (inactive) in the assay on M14; > 100 µM (inactive) in the assay with CAKI-1; > 100 µM (inactive) with SW-620; 89.3 µM (inactive) in the assay with HCT-116; > 100 µM (inactive) in the assay on KM12. Moreover, the GI50 with NCI-H23 and in the assay on HCC 2998 was > 100 µM (inactive) throughout.

As to `CC(C)(C)CC(C)(C)c1cc(O)c(O)c(CN2CCCCC2)c1`, the GI50 is 16.3 µM (inactive) in the assay on UACC-62; 10.8 µM (inactive) in the assay with NCI-H522; 15.3 µM (inactive) with SNB-19; 13.3 µM (inactive) in the assay on UO-31; 15.5 µM (inactive) in the assay with HOP-62; 19.2 µM (inactive) in the assay on OVCAR-4. Further, the GI50 was 16.9 µM (inactive) in the assay with MDA-MB-435; 13.3 µM (inactive) in the assay with HL-60; 5.09 µM (inactive) in the assay on NCI/ADR-RES; 11.7 µM (inactive) in the assay on NCI-H460; 15.6 µM (inactive) with SK-MEL-5; 16.1 µM (inactive) with TK-10. For the same molecule, the GI50 with BT-549 was 15.1 µM (inactive); in the assay with M14 it was 15.6 µM (inactive); in the assay on CAKI-1, 14.2 µM (inactive); in the assay on SW-620 it was 13.2 µM (inactive); with HCT-116 it was 15.3 µM (inactive); with KM12, 17.5 µM (inactive). For the same molecule, the GI50 is 16.1 µM (inactive) with NCI-H23 and 10.6 µM (inactive) in the assay on HCC 2998.

For the molecule `CC1=NN(C(=O)c2ccccc2O)C(=O)/C1=C/c1ccc([N+](=O)[O-])cc1`, the GI50 in the assay on UACC-62 was 0.0603 µM (active); with NCI-H522 it was 0.615 µM (active); in the assay on SNB-19, 0.0782 µM (active); in the assay with UO-31, 0.103 µM (active); in the assay with HOP-62, 0.536 µM (active); in the assay with OVCAR-4 it was 0.482 µM (active). Also, the GI50 in the assay on MDA-MB-435 is 0.106 µM (active); in the assay on HL-60, 0.508 µM (active); in the assay with NCI/ADR-RES it was 0.664 µM (active); in the assay on NCI-H460, 0.114 µM (active); with SK-MEL-5, 0.239 µM (active); in the assay with TK-10 it was > 24.2 µM (inactive). In addition, the GI50 in the assay with BT-549 is 0.328 µM (active); with M14, 0.437 µM (active); with CAKI-1 it was 0.455 µM (active); with SW-620 it was 0.738 µM (active); in the assay on HCT-116 it was 0.116 µM (active); with KM12, 0.161 µM (active). In addition, the GI50 was 0.177 µM (active) in the assay on NCI-H23 and 1.85 µM (inactive) in the assay on HCC 2998.
